Here are results for two compounds from patent US7098186B2, “Depsipeptide compound” (Astellas Pharma INC, priority 2002, dated 2006).

pIC50: −log10 of the molar value.

Format in all cases: cell-based
In test [1] the test system is human leukemia K562 cells. Kind of test: Inhibition of cell proliferation against human cancer cells (Alamar Blue), K562. As to conditions: 72 hours culture. The procedure: (§1) Human colon cancer WiDr cells or human leukemia K562 cells were inoculated into a 96-well test plate at a density of 5×10^3 cell/well and cultured at 37° C. in a […] incubator. Eighteen hours after the inoculation, the solvent (DMSO) diluted with the medium and various concentrations of the compound Q or R were added, and followed by further culture at 37° C. in a […] incubator for 72 hours. After the culturing, the proliferation of cells was measured with Alamar Blue (BIOSOURCE Co.). The measurement values for the conditions in which 0.1% DMSO and cells had been added, and 0.1% DMSO had been added and cells had not been added were assigned to be 0% inhibition and 100% inhibition, respectively, and the proliferation inhibition rate for each concentration of the compounds was obtained, then the concentration of inhibiting proliferation by 50% (IC50 value) was calculated by logistic regression.

Test [2] has as its system Human colon cancer WiDr cells. Nature of the test: Inhibition of cell proliferation against human cancer cells (Alamar Blue), WiDr. As to conditions: 72 hours culture. Here is the method: as §1
Test [3] relates to acetylated histone H3 in K562 cells. Kind of test: Effect on inducing histone acetylation against human cancer cells (Western blot, anti-acetylated histone H3). The settings on record: 0.3 to 30 nM, 24 hours, in comparison with the sample treated with solvent. The procedure: After inoculating K562 cells into a 35 mm dish at a density of 1.5×10^6 cell/dish, the solvent (DMSO) and various concentrations (0.3 to 30 nM) of the compound Q or R were added and cultured at 37° C. in a […] incubator for 24 hours. Extraction of the histone protein was performed by the following method. To the cell precipitate collected by centrifugation, TEN buffer (10 mM Tris HCl (pH 8.0), 1 mM EDTA, 1% NP-40, 1 tablet/10 mL Complete mini (Roche Co.)) was added, stood on the ice for 10 minutes, and the supernatant was collected by centrifugation. The supernatant was mixed well with an equal amount of 0.4 M sulfuric acid, and stood on ice for 1 hour. The supernatant portion was collected by centrifugation, mixed with 5 times amount of acetone and stood at −20° C. for 12 hours or more. The precipitate was collected by centrifugation, washed once with acetone, and then the precipitate was dried. The precipitate was dissolved in distilled water, which was made to be histone protein, the protein concentration was determined by the Bradford method. […] For the primary antibody, an anti-acetylated histone H3 antibody (UPSTATE biotechnology Co.), for the secondary antibody, an HRP labeled anti-rabbit antibody (Amersham Pharmacia Biotech Co.) were used, and luminescence was detected by ECL (Amersham Pharmacia Biotech Co.).

As for `CC1NC(=O)CC2/C=C/CCSSSCC(NC1=O)C(=O)NC(C(C)C)C(O)CC(=O)O2` (stereo not drawn) [compound Q], the results for the pIC50 in test [1] and in test [2] were 8.85 and 8.52, respectively. Also, the “bands of acetylated histone H3 (induction of histone acetylation)” value in test [3] was “significant and dose-dependent bands of acetylated histone H3 were detected”.

In the case of `CC1NC(=O)CC2/C=C/CCSSCC(NC1=O)C(=O)NC(C(C)C)C(O)CC(=O)O2` (stereo not drawn) [compound R], the pIC50 in test [1] is 9.22; in test [2], 9.05. In addition, the “bands of acetylated histone H3 (induction of histone acetylation)” value in test [3] is “significant and dose-dependent bands of acetylated histone H3 were detected”.
